Measurements as given in the supplement of paper PMC10307832.

How the values were obtained:
Assay in all cases: relative viability (nuclei count vs DMSO), 5 days (fraction); higher = more cells survive
Gemcitabine + Navitoclax = compound: Nc1ccn([C@@H]2O[C@H](CO)[C@@H](O)C2(F)F)c(=O)n1 [Gemcitabine] + CC1(C)CCC(c2ccc(Cl)cc2)=C(CN2CCN(c3ccc(C(=O)NS(=O)(=O)c4ccc(N[C@H](CCN5CCOCC5)CSc5ccccc5)c(S(=O)(=O)C(F)(F)F)c4)cc3)CC2)C1 [Navitoclax] (partner 0.5 µM)
How it was run: (§1)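 Dosing by pin tool came one day after lung cancer cell lines were seeded in 1536-well plates, using either one drug or a fixed anchor-drug dose plus five library-drug doses (not always all listed) in √10 steps. After 5 days, nuclei were counted on 4× images. Relative viability is treated-well nuclei count divided by vehicle-well nuclei count, and values are medians of duplicate plates.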

Gemcitabine + Luminespib = compound: Nc1ccn([C@@H]2O[C@H](CO)[C@@H](O)C2(F)F)c(=O)n1 [Gemcitabine] + CCNC(=O)c1noc(-c2cc(C(C)C)c(O)cc2O)c1-c1ccc(CN2CCOCC2)cc1 [Luminespib] (partner 0.01 µM)
How it was run: as §1

Gemcitabine + Foretinib = compound: Nc1ccn([C@@H]2O[C@H](CO)[C@@H](O)C2(F)F)c(=O)n1 [Gemcitabine] + COc1cc2c(Oc3ccc(NC(=O)C4(C(=O)Nc5ccc(F)cc5)CC4)cc3F)ccnc2cc1OCCCN1CCOCC1 [Foretinib] (partner 0.25 µM)
How it was run: as §1

Gemcitabine + Linsitinib = compound: Nc1ccn([C@@H]2O[C@H](CO)[C@@H](O)C2(F)F)c(=O)n1 [Gemcitabine] + C[C@]1(O)C[C@@H](c2nc(-c3ccc4ccc(-c5ccccc5)nc4c3)c3c(N)nccn32)C1 [Linsitinib] (partner 1 µM)
How it was run: as §1

| Cell Line | relative viability (Gemcitabine + Navitoclax; first compound 0.001 µM) | relative viability (Gemcitabine + Navitoclax; first compound 0.003162 µM) | relative viability (Gemcitabine + Navitoclax; first compound 0.01 µM) | relative viability (Gemcitabine + Navitoclax; first compound 0.03162 µM) | relative viability (Gemcitabine + Navitoclax; first compound 0.1 µM) | relative viability (Gemcitabine + Luminespib; first compound 0.001 µM) | relative viability (Gemcitabine + Luminespib; first compound 0.003162 µM) | relative viability (Gemcitabine + Luminespib; first compound 0.01 µM) | relative viability (Gemcitabine + Luminespib; first compound 0.03162 µM) | relative viability (Gemcitabine + Luminespib; first compound 0.1 µM) | relative viability (Gemcitabine + Foretinib; first compound 0.001 µM) | relative viability (Gemcitabine + Foretinib; first compound 0.003162 µM) | relative viability (Gemcitabine + Foretinib; first compound 0.01 µM) | relative viability (Gemcitabine + Foretinib; first compound 0.03162 µM) | relative viability (Gemcitabine + Foretinib; first compound 0.1 µM) | relative viability (Gemcitabine + Linsitinib; first compound 0.001 µM) | relative viability (Gemcitabine + Linsitinib; first compound 0.003162 µM) | relative viability (Gemcitabine + Linsitinib; first compound 0.01 µM) | relative viability (Gemcitabine + Linsitinib; first compound 0.03162 µM) | relative viability (Gemcitabine + Linsitinib; first compound 0.1 µM) |
| --- | --- | --- | --- | --- | --- | --- | --- | --- | --- | --- | --- | --- | --- | --- | --- | --- | --- | --- | --- | --- |
| NCI-H1666 | 0.872 | 0.836 | 0.393 | 0.281 | 0.275 | 1.01 | 0.937 | 0.957 | 0.595 | 0.393 | 0.9 | 0.991 | 0.889 | 0.619 | 0.428 | 0.789 | 0.882 | 0.435 | 0.286 | 0.285 |
| NCI-H1734 | 0.843 | 0.562 | 0.195 | 0.106 | 0.0836 | 0.159 | 0.157 | 0.119 | 0.136 | 0.119 | 0.781 | 0.653 | 0.287 | 0.131 | 0.126 | 0.909 | 0.806 | 0.457 | 0.129 | 0.13 |
| NCI-H1755 | 0.925 | 1.04 | 0.827 | 0.256 | 0.153 | 0.451 | 0.505 | 0.491 | 0.346 | 0.26 | 1 | 0.909 | 0.879 | 0.564 | 0.29 | 0.957 | 1.06 | 0.975 | 0.347 | 0.259 |
| NCI-H1793 | 0.488 | 0.474 | 0.169 | 0.216 | 0.151 | 0.17 | 0.179 | 0.15 | 0.125 | 0.137 | 0.71 | 0.652 | 0.437 | 0.141 | 0.136 | 1 | 0.857 | 0.539 | 0.16 | 0.135 |
| NCI-H1915 | 0.768 | 0.789 | 0.785 | 0.797 | 0.364 | 0.826 | 0.759 | 0.693 | 0.669 | 0.356 | 1.1 | 1.1 | 1.04 | 0.908 | 0.468 | 1.12 | 1.09 | 1.11 | 0.92 | 0.442 |
| NCI-H1944 | 1.11 | 1.01 | 0.897 | 0.692 | 0.209 | 0.73 | 0.764 | 0.758 | 0.458 | 0.183 | 0.891 | 0.992 | 0.847 | 0.345 | 0.199 | 1.24 | 1.15 | 1.17 | 0.509 | 0.259 |
| NCI-H1975 | 1.07 | 1.14 | 0.463 | 0.228 | 0.179 | 0.173 | 0.158 | 0.154 | 0.182 | 0.13 | 1.03 | 0.962 | 0.555 | 0.156 | 0.138 | 1.1 | 1.04 | 0.586 | 0.218 | 0.191 |
| NCI-H1993 | 1.1 | 1.01 | 0.583 | 0.673 | 0.513 | 0.61 | 0.85 | 0.579 | 0.508 | 0.45 | 0.561 | 0.833 | 0.61 | 0.63 | 0.588 | 0.689 | 0.723 | 0.622 | 0.599 | 0.579 |
| NCI-H2009 | 1.25 | 0.87 | 0.366 | 0.0871 | 0.0975 | 1.08 | 0.751 | 0.325 | 0.179 | 0.126 | 1.26 | 0.938 | 0.404 | 0.185 | 0.153 | 1.23 | 0.722 | 0.29 | 0.156 | 0.119 |
| NCI-H2023 | 0.986 | 0.794 | 0.667 | 0.135 | 0.0835 | 0.96 | 0.755 | 0.623 | 0.141 | 0.0596 | 0.966 | 0.643 | 0.586 | 0.124 | 0.0582 | 0.8 | 0.631 | 0.478 | 0.0945 | 0.0741 |
| NCI-H2085 | 1.1 | 1.15 | 0.848 | 0.646 | 0.484 | 0.435 | 0.477 | 0.369 | 0.298 | 0.263 | 0.897 | 0.889 | 0.598 | 0.431 | 0.241 | 0.795 | 0.967 | 0.705 | 0.57 | 0.404 |
| NCI-H2087 | 1.11 | 0.813 | 0.397 | 0.156 | 0.153 | 0.178 | 0.159 | 0.14 | 0.147 | 0.138 | 1.14 | 0.708 | 0.245 | 0.164 | 0.111 | 0.93 | 0.808 | 0.579 | 0.217 | 0.183 |
| NCI-H2126 | 0.821 | 0.815 | 0.812 | 0.728 | 0.369 | 0.975 | 0.828 | 0.773 | 0.414 | 0.257 | 1.15 | 1.17 | 1.15 | 0.674 | 0.324 | 0.712 | 0.673 | 0.692 | 0.51 | 0.315 |
| NCI-H2228 | 1.13 | 0.407 | 0.203 | 0.0863 | 0.0652 | 0.131 | 0.0993 | 0.14 | 0.149 | 0.124 | 0.913 | 0.536 | 0.198 | 0.183 | 0.0975 | 0.569 | 0.666 | 0.186 | 0.217 | 0.112 |
| NCI-H2347 | 0.86 | 0.64 | 0.639 | 0.334 | 0.206 | 0.412 | 0.513 | 0.302 | 0.448 | 0.282 | 0.817 | 0.731 | 0.826 | 0.492 | 0.35 | 1 | 0.918 | 0.88 | 0.606 | 0.458 |
| NCI-H2405 | 0.992 | 0.551 | 0.0966 | 0.084 | 0.0831 | 0.73 | 0.746 | 0.587 | 0.207 | 0.216 | 0.996 | 1 | 0.676 | 0.254 | 0.229 | 0.965 | 0.651 | 0.393 | 0.237 | 0.182 |
